From article PMC8151276, “An Integrated Approach toward NanoBRET Tracers for Analysis of GPCR Ligand Engagement” (Molecules, 2021)
Values belong to the molecule of their own block, whether it stands above or below them.

What was measured:
Format in all cases: binding
[1] = biological target: T1, RXFP2 (Homo sapiens, UniProt Q8WXD0); experiment: NanoBRET screen HiBiT-RXFP2 in HEK293
T1 construct: purchased Promega (in-house HiBiT-GPCR construct library, NanoBRET)
Description: (§1) Each tracer candidate was screened across the entire library of HiBiT-GPCR constructs using NanoBRET as the detection modality. As depicted in Figure 4A, the specificity of interactions was evaluated through decrease in BRET due to competitive displacement of a bound tracer by excess parental compound. Each tracer was analyzed for binding to each HiBiT-GPCR fusion in the absence and in the presence of competing parental compound. Briefly, HEK293 cells were transfected with HiBiT-GPCR constructs diluted into promoterless DNA to reduce expression and maximize translocation to the cell surface. Each tracer candidate was then screened at concentrations of 1 μM and 0.1 μM across cells expressing these fusions. Cells were treated for 1.5 h with tracer either alone or in the presence of 20 μM competing parental compound (i.e., control). BRET was measured upon addition of purified LgBiT and subsequent complementation with HiBiT genetically fused to a GPCR. The specificity of interactions was assessed through a decrease in BRET signal due to competitive displacement of the bound tracer. To further gauge the robustness of these interactions, the fold response over the control (i.e., BRETtracer/BRETcontrol) was calculated. We chose a 1.5-fold response, which translates to ≥7-fold signal over noise as the minimal threshold required to score an interaction as positive. […]. Below we highlight the screening results obtained for our exemplary fluorescent tracers based on Clozapine, Amitriptyline and AZD1283.
(§2) HiBiT-GPCR DNA constructs were diluted in 10 mM Tris pH 8 to a final concentration of 0.01 μg/μL, arrayed in 96-well plates and stored at −20 °C. For transfection, HEK293 cells were suspended in Opti-MEM (without phenol red) supplemented with 2% fetal bovine serum (Seradigm) and 100 units/mL penicillin–streptomycin (Gibco) at a final concentration of 220,000 cells/mL and dispensed into white 96-well plates at 90 μL/well. Subsequent transfections and screens were carried using an Agilent Bravo Automated Liquid Handling Platform. First, the 96-well HiBiT DNA arrays were diluted 25-fold in Opti-MEM (without serum or phenol red) to a final concentration of 0.0004 μg/μL and 20 μL of the diluted DNAs were transferred into new 96-well plates. Next, promoterless carrier DNA (1 μg/μL) was diluted 25-fold (0.04 μg/μL) and then dispensed into the diluted arrays at 20 μL/well. Following brief mixing, Viafect transfection reagent (Promega) diluted 16-fold into Opti-MEM was dispensed into the plates at 40 μL/well. After mixing by pipetting, plates were incubated for 10 min on the pipetting station deck. The DNA-transfection reagent complexes were then added to plates containing cells. To facilitate the screen, 10 μL of DNA-transfection reagent complexes were added in duplicates to the top 4 and bottom 4 rows, resulting in two identical 48-well arrays per plate. Plates with transfected cells were incubated for 18–20 h at 37 °C/5% CO2. A screen of each tracer across the entire library using two different concentrations requires duplicate plates of transfected cells. Depending on the number of tracers being screened, transfections can be scaled up using the same ratios. The next day, for each tracer, four 20× screening solutions in tracer dilution buffer (Promega) were prepared: two duplicates at final concentration of 20 μM and two duplicates at a final concentration of 2 μM. A competing unmodified compound was added to one of each duplicate at a final concentration of 400 μM. The four resulting solutions were diluted 4-fold in Opti-MEM without serum or phenol red to generate 5× solutions (5 µM and 0.5 µM tracer +/− 100 μM competing compound). To screen the library, a BioTek MultiFlo FX liquid dispenser was used to dispense 22.5 µL of tracer solution to the top 4 rows and 22.5 µL tracer + competing compound solution to the 4 bottom rows. Plates were briefly mixed on an orbital shaker and incubated for 1.5 h at room temperature. […]

[2] = biological target: T2, ADRA2C (Homo sapiens, UniProt P18825); experiment: NanoBRET screen HiBiT-ADRA2C in HEK293
T2 construct: purchased Promega (in-house HiBiT-GPCR construct library, NanoBRET)
T2 sequence (P18825 1-462): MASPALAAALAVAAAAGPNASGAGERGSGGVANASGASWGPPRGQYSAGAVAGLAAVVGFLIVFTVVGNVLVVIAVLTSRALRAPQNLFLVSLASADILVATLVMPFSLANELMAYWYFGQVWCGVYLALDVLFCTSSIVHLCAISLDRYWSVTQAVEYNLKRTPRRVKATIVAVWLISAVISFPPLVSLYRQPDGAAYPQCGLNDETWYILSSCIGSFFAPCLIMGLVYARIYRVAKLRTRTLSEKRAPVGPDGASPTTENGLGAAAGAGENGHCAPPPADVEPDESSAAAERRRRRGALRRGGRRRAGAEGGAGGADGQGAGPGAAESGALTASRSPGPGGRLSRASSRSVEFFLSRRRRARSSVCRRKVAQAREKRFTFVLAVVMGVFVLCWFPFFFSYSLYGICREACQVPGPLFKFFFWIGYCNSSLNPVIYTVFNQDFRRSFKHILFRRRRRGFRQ
Description: as §1, §2

[3] = biological target: T3, RXFP4 (Homo sapiens, UniProt Q8TDU9); experiment: NanoBRET screen HiBiT-RXFP4 in HEK293
T3 construct: purchased Promega (in-house HiBiT-GPCR construct library, NanoBRET)
Description: as §1, §2

[4] = biological target: T4, HRH2 (Homo sapiens, UniProt P25021); experiment: NanoBRET screen HiBiT-HRH2 in HEK293
T4 construct: purchased Promega (in-house HiBiT-GPCR construct library, NanoBRET)
Description: as §1, §2

[5] = biological target: T5, P2RY11 (Homo sapiens, UniProt Q96G91); experiment: NanoBRET screen HiBiT-P2RY11 in HEK293
T5 construct: purchased Promega (in-house HiBiT-GPCR construct library, NanoBRET)
T5 sequence (Q96G91 1-374): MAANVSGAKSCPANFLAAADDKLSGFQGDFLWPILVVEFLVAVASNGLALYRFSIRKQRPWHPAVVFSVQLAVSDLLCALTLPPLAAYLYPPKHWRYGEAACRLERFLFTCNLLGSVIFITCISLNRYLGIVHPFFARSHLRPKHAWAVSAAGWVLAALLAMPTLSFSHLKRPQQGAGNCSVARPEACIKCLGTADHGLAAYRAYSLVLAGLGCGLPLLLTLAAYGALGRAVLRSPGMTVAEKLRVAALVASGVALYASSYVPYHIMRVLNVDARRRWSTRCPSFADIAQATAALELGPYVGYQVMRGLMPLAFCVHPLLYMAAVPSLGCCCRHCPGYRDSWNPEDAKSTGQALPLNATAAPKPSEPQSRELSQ
Description: as §1, §2

[6] = biological target: T6, MC3R (Homo sapiens, UniProt P41968); experiment: NanoBRET screen HiBiT-MC3R in HEK293
T6 construct: purchased Promega (in-house HiBiT-GPCR construct library, NanoBRET)
Description: as §1, §2

[7] = biological target: T7, MC4R (Homo sapiens, UniProt P32245); experiment: NanoBRET screen HiBiT-MC4R in HEK293
T7 construct: purchased Promega (in-house HiBiT-GPCR construct library, NanoBRET)
Description: as §1, §2

[8] = tracer at 0.1μM, listed as amitriptyline-b-2-NB590
[9] = tracer at 1μM, listed as amitriptyline-b-2-NB590

T7 sequence (P32245 whole entry): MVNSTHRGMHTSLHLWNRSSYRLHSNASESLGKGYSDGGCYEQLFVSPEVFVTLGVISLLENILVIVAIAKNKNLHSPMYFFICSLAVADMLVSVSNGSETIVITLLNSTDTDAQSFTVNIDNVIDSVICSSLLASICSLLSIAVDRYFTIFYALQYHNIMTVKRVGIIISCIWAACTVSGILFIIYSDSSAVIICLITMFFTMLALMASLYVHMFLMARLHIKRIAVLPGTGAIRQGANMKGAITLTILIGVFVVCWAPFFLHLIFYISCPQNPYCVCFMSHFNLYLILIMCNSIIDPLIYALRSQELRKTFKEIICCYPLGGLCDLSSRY
T3 sequence (Q8TDU9 whole entry): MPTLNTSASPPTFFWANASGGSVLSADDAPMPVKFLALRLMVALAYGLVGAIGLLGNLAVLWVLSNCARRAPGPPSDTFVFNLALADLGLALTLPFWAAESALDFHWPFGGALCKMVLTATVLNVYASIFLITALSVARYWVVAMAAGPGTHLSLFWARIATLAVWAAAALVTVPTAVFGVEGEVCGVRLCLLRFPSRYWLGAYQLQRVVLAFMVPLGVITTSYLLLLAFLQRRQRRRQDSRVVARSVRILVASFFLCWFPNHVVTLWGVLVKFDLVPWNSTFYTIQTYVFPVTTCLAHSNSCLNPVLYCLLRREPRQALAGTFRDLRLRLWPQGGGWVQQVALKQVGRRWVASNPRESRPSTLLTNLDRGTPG
T6 sequence (P41968 whole entry): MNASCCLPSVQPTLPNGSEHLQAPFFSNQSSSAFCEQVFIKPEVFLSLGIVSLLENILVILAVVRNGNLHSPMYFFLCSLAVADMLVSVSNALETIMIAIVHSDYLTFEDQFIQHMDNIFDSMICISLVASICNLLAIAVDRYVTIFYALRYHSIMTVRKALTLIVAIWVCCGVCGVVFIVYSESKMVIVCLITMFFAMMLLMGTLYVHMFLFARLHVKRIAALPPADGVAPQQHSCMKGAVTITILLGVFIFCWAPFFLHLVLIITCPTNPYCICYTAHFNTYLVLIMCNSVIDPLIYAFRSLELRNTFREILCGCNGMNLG
T4 sequence (P25021 whole entry): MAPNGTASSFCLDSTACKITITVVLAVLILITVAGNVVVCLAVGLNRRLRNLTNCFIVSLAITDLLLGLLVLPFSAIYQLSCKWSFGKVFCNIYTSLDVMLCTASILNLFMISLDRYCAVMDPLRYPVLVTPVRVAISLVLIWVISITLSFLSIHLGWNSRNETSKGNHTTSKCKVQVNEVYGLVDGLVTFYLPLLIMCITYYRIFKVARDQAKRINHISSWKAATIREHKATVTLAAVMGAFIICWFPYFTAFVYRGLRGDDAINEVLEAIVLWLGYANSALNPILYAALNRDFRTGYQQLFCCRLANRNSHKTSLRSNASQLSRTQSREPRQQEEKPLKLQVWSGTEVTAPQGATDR
T1 sequence (Q8WXD0 whole entry): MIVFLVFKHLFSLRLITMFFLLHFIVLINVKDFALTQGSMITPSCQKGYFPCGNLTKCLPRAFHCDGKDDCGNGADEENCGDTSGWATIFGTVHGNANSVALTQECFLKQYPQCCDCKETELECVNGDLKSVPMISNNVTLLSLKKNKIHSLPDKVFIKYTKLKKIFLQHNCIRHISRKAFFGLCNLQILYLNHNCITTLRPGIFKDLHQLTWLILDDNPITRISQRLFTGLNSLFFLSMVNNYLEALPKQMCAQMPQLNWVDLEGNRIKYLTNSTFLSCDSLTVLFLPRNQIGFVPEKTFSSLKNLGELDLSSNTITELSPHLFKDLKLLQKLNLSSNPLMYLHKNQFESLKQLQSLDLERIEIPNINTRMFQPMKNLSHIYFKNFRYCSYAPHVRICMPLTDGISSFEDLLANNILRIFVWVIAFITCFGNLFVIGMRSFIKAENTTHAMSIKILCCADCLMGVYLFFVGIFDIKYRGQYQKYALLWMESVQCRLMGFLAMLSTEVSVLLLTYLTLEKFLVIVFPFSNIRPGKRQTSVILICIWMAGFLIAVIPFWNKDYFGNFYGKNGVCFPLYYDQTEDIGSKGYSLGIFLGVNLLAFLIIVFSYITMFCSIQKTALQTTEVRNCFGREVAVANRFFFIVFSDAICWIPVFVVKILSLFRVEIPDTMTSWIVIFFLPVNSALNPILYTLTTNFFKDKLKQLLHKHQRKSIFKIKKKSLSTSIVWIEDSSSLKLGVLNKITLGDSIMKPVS

NanoBRET Fold Response ([1]; RXFP2, 0.1μM): 1.25
NanoBRET Fold Response ([1]; RXFP2, 1μM): 1.29
NanoBRET Fold Response ([2]; ADRA2C, 0.1μM): 1.05
NanoBRET Fold Response ([2]; ADRA2C, 1μM): 1.04
NanoBRET Fold Response ([3]; RXFP4, 0.1μM): 1.02
NanoBRET Fold Response ([3]; RXFP4, 1μM): 1.09
NanoBRET Fold Response ([4]; HRH2, 0.1μM): 0.90
NanoBRET Fold Response ([4]; HRH2, 1μM): 1.03
NanoBRET Fold Response ([5]; P2RY11, 0.1μM): 1.09
NanoBRET Fold Response ([5]; P2RY11, 1μM): 1.04
NanoBRET Fold Response ([6]; MC3R, 0.1μM): 1.00
NanoBRET Fold Response ([6]; MC3R, 1μM): 0.98
NanoBRET Fold Response ([7]; MC4R, 0.1μM): 0.98
NanoBRET Fold Response ([7]; MC4R, 1μM): 1.01
Structure (SMILES): CCOC(=O)c1cc(C#N)c(N2CCC(C(=O)NS(=O)(=O)Cc3ccccc3/C=C/C(=O)NCCNC(=O)CCc3ccc4n3[B-](F)(F)[N+]3=C(c5ccc[nH]5)C=CC3=C4)CC2)nc1C [AZD1283-1-NB590]

NanoBRET Fold Response ([2]; ADRA2C, other tracers/Aminopotentidine (unmodified), 0.1μM): 1.06
NanoBRET Fold Response ([2]; ADRA2C, other tracers/Aminopotentidine (unmodified), 1μM): 1.11
Structure (SMILES): N#CN/C(=N\CCNC(=O)c1ccc(N)cc1)NCCCOc1cccc(CN2CCCCC2)c1 [Aminopotentidine (unmodified)]

NanoBRET Fold Response ([1]; RXFP2, tracer 0.1μM): 0.83
NanoBRET Fold Response ([1]; RXFP2, tracer 1μM): 0.83
NanoBRET Fold Response ([2]; ADRA2C, tracer 0.1μM): 1.35
NanoBRET Fold Response ([2]; ADRA2C, tracer 1μM): 1.25
NanoBRET Fold Response ([3]; RXFP4, tracer 0.1μM): 1.02
NanoBRET Fold Response ([3]; RXFP4, tracer 1μM): 1.02
NanoBRET Fold Response ([4]; HRH2, tracer 0.1μM): 5.51
NanoBRET Fold Response ([4]; HRH2, tracer 1μM): 3.65
NanoBRET Fold Response ([5]; P2RY11, tracer 0.1μM): 1.14
NanoBRET Fold Response ([5]; P2RY11, tracer 1μM): 1.03
NanoBRET Fold Response ([6]; MC3R, tracer 0.1μM): 1.00
NanoBRET Fold Response ([6]; MC3R, tracer 1μM): 1.01
NanoBRET Fold Response ([7]; MC4R, tracer 0.1μM): 0.99
NanoBRET Fold Response ([7]; MC4R, tracer 1μM): 0.89
Structure (SMILES): N#CN=C(NCCCOc1cccc(CN2CCCCC2)c1)NCCNC(=O)CCOCCOCCOCCOCCNC(=O)CCc1ccc2n1[B-](F)(F)[N+]1=C(c3ccc[nH]3)C=CC1=C2 [Aminopotentidine-2-NB590]

NanoBRET Fold Response ([1]; 0.1μM tracer): 1.10
NanoBRET Fold Response ([1]; 1μM tracer): 1.34
NanoBRET Fold Response ([2]; 0.1μM tracer): 1.01
NanoBRET Fold Response ([2]; 1μM tracer): 0.79
NanoBRET Fold Response ([3]; 0.1μM tracer): 0.73
NanoBRET Fold Response ([3]; 1μM tracer): 1.04
NanoBRET Fold Response ([4]; 0.1μM tracer): 0.99
NanoBRET Fold Response ([4]; 1μM tracer): 0.99
NanoBRET Fold Response ([5]; 0.1μM tracer): 0.89
NanoBRET Fold Response ([5]; 1μM tracer): 0.89
NanoBRET Fold Response ([6]; 0.1μM tracer): 0.93
NanoBRET Fold Response ([6]; 1μM tracer): 1.22
NanoBRET Fold Response ([7]; 0.1μM tracer): 0.87
NanoBRET Fold Response ([7]; 1μM tracer): 1.03
Structure (SMILES): COc1ccc2c(n1)c(CCNC(C)=O)cn2CCNC(=O)CCc1ccc2n1[B-](F)(F)[N+]1=C(c3ccc[nH]3)C=CC1=C2 [Azamelatonin-1-NB590]

The next lines start with the molecule.

Structure (SMILES): CN(C)CCC=C1c2ccccc2CCc2ccc(C(=O)NCCNC(=O)CCOCCOCCOCCOCCNC(=O)CCc3ccc4n3[B-](F)(F)[N+]3=C(c5ccc[nH]5)C=CC3=C4)cc21 [Amitriptyline-a-2-NB590]
NanoBRET Fold Response ([2]; tracer at 1μM): 1.37
NanoBRET Fold Response ([3]; tracer at 0.1μM): 1.05
NanoBRET Fold Response ([3]; tracer at 1μM): 1.03
NanoBRET Fold Response ([4]; tracer at 0.1μM): 1.00
NanoBRET Fold Response ([4]; tracer at 1μM): 0.99
NanoBRET Fold Response ([5]; tracer at 0.1μM): 1.13
NanoBRET Fold Response ([5]; tracer at 1μM): 1.07

Structure (SMILES): CN(C)CCC=C1c2ccccc2CCc2ccc(C(=O)NCCNC(=O)CCOCCOCCOCCOCCNC(=O)CCc3ccc4n3[B-](F)(F)[N+]3=C(c5ccc[nH]5)C=CC3=C4)cc21 [Amitriptyline-b-2-NB590]
NanoBRET Fold Response ([1]; tracer at 0.1μM): 1.09
NanoBRET Fold Response ([1]; tracer at 1μM): 1.34
NanoBRET Fold Response [2, 8]: 1.08
NanoBRET Fold Response [2, 9]: 1.08
NanoBRET Fold Response [3, 8]: 1.07
NanoBRET Fold Response [3, 9]: 0.89
NanoBRET Fold Response [4, 8]: 0.85
NanoBRET Fold Response [4, 9]: 1.05
NanoBRET Fold Response [5, 8]: 0.88
NanoBRET Fold Response [5, 9]: 0.96
NanoBRET Fold Response ([6]; tracer at 0.1μM): 0.98
NanoBRET Fold Response ([6]; tracer at 1μM): 0.98
NanoBRET Fold Response ([7]; tracer at 0.1μM): 1.00
NanoBRET Fold Response ([7]; tracer at 1μM): 1.02

Structure (SMILES): CN(CCC=C1c2ccccc2CCc2ccccc21)C(=O)CCOCCOCCOCCOCCNC(=O)CCc1ccc2n1[B-](F)(F)[N+]1=C(c3ccc[nH]3)C=CC1=C2 [Amitriptyline-e-2-NB590]
NanoBRET Fold Response ([2]; tracer at 1μM): 1.00
NanoBRET Fold Response ([4]; tracer at 1μM): 0.95
NanoBRET Fold Response ([5]; tracer at 1μM): 1.13

Structure (SMILES): COc1ccc2[nH]c(-c3ccc(CNC(=O)CCOCCOCCOCCOCCNC(=O)CCc4ccc5n4[B-](F)(F)[N+]4=C(c6ccc[nH]6)C=CC4=C5)cc3)c(CCNC(C)=O)c2n1 [AzomelatoninICO9-2-NB590]
NanoBRET Fold Response ([1]; 0.1μM tracer): 1.23
NanoBRET Fold Response ([1]; 1μM tracer): 0.59
NanoBRET Fold Response ([2]; 0.1μM tracer): 1.08
NanoBRET Fold Response ([2]; 1μM tracer): 1.17
NanoBRET Fold Response ([3]; 0.1μM tracer): 0.94
NanoBRET Fold Response ([3]; 1μM tracer): 0.96
NanoBRET Fold Response ([4]; 0.1μM tracer): 1.11
NanoBRET Fold Response ([4]; 1μM tracer): 1.07
NanoBRET Fold Response ([5]; 0.1μM tracer): 1.19
NanoBRET Fold Response ([5]; 1μM tracer): 0.97
NanoBRET Fold Response ([6]; 0.1μM tracer): 1.02
NanoBRET Fold Response ([6]; 1μM tracer): 0.72
NanoBRET Fold Response ([7]; 0.1μM tracer): 0.92
NanoBRET Fold Response ([7]; 1μM tracer): 0.98
